Values quoted from earlier work in article PMC8760190 (Molecular Imaging and Biology, 2021).

Conditions: 90 min after injection, rats and mice

| Compound | Non-metabolized parent compound as share of remaining radioactivity in the brain |
| --- | --- |
| CCN(CC)C(=O)Cc1c(-c2ccc(OCC[18F])cc2)nn2c(C)cc(C)nc12 [[^18F]DPA-714] | about 50% |
| CCN(CC)C(=O)Cc1c(-c2ccc([18F])cc2)nn2c(C)cc(C)nc12 [[^18F]F-DPA] | more than 90% |
